Test results as given in US10307383B2, “Cosmetic composition for preventing or ameliorating hypersensitive skin comprising cedrol or derivatives thereof, or pharmaceutically acceptable salts thereof” (University of Seoul Industry Cooperation Foundation, priority 2017, dated 2019).

Tests used:
Type in all cases: in vivo, Balb/c mouse
[1] = system: psoriasis induced mice (imiquimod); assay: Skin flair reduction effect in the psoriasis induced mice (PASI); conditions: for skin flair mean point (PASI): day 7, 100 mg/kg oral once a day, IMQ applied, IMQ alone 4.00
Method: (§1) To investigate the delayed effect of cedrol, cedryl acetate, and alpha-cedrene on the development of psoriasis, total 5 groups of mice were prepared (8 mice/group). First, the hair of the entire back of the 8-week-old male Balb/c mouse whose immune system was weakened was removed by using a hair clipper (Kimlaube Hair pen 325,327, Rikei, Korea). In the middle of the shaved back of the mouse, 2 mg of imiquimod (3M Health Care Limited, England) was applied in the area of 2 cm×1.5 cm and also 1,125 mg of imiquimod was applied on the right ear of the mouse every day once a day to induce psoriasis.
(§2) The mice prepared above were divided into the distilled water treated group (IMQ), the cedrol treated group (C), the cedryl acetate treated group (CA), and the alpha-cedrene treated group (CE). At this time, the mice were orally treated with distilled water at the concentration of 200 μl/mouse and cedrol or its derivatives at the concentration of 200 μl/mouse (100 mg/kg). The day when distilled water or the compound administration started was recorded as day 0 and the administration was performed once a day for a week, during which photo-recording was performed every day (FIGS. 2A˜2D). In the meantime, instead of applying imiquimod, 40 mg of vaseline was applied on the back of the control group (CONT) and 22.5 mg of vaseline was applied on the right ear of the control group. And the control group was orally administered with distilled water (200 μl/mouse).
Then, the psoriasis area severity index (PASI) was calculated to confirm the reduction effect of the compounds on skin flair. Skin flair is a symptom of psoriasis. The application of IMQ can induce skin flair.

[2] = system: psoriasis induced mice (imiquimod); assay: Skin pain reduction effect in the psoriasis induced mice (back pinch, mice counted); conditions: for number of mice showing skin pain: IMQ applied
Method: as §1, §2
When the back of the psoriasis induced mice orally administered with cedrol, cedryl acetate, and alpha-cedrene of Example <2-1> was pinched, those mice who sound painfully with strong rejection were counted. Skin pain is a symptom of psoriasis, and when IMQ is applied, skin pain becomes stronger as time goes by.

[3] = system: psoriasis induced mice (imiquimod); assay: Skin hemorrhage spot reduction effect in the psoriasis induced mice; conditions: for number of mice showing hemorrhage spots: IMQ applied, 8 mice/group
Method: as §1, §2
The psoriasis induced mice orally administered with cedrol, cedryl acetate, and alpha-cedrene of Example <2-1> were observed by the naked eye, and the number of mice showing hemorrhage spots was counted. Hemorrhage spot is a symptom of psoriasis, and when IMQ is applied, the number of skin hemorrhage spots increases as time goes by.

[4] = system: psoriasis induced mice (imiquimod); assay: Skin wrinkle reduction effect in the psoriasis induced mice; conditions: for number of mice showing skin wrinkles: IMQ applied, 8 mice/group
Method: as §1, §2
The psoriasis induced mice orally administered with cedrol, cedryl acetate, and alpha-cedrene of Example <2-1> were observed by the naked eye, and the number of mice showing skin wrinkles was counted. Skin wrinkle is a symptom of psoriasis, and when IMQ is applied, skin keratinization increases and accordingly skin wrinkles are formed as time goes by.

[5] = system: IL-17A expression in the spleen; assay: Inhibition of IL-17A expression in the spleen of the psoriasis induced mice (real-time PCR); conditions: 100 mg/kg oral, IMQ applied; for IL-17A expression value in the spleen (non-treated control group regarded as value 1): real-time PCR, IMQ alone 54.9±5.5
Method: as §1, §2
The inhibition of IL-17A expression in the spleen of the psoriasis Induced mice according to the oral administration of cedrol, cedryl acetate, and alpha-cedrene was investigated by real-time PCR (polymerase chain reaction).
Particularly, the spleen was extracted from the psoriasis Induced mice orally administered with cedrol, cedryl acetate, and alpha-cedrene of Example <2-1>. Total RNA was extracted from the spleen by the conventional method. To synthesize cDNA, 2 μg of RNA was loaded in 9 μl of DEPC (RNase free water), indicating the dilution of the concentration. 1 μl of oligo dT was added thereto, followed by reaction at 70° C. for 10 minutes. The sample was treated on ice for 5 minutes, to which 2 μl of 10× reaction buffer, 2 μl of dNTP (10 mM each), 1 μl of M-MLV reverse transcriptase, and 5 μl of DNase free water were added to make the total volume of the reaction mixture 20 μl. The mixture was reacted at 42° C. for 1 hour to synthesize cDNA. The reaction mixture was heated at 72° C. for 10 minutes to remove the reverse transcriptase activity. Then, the reaction mixture was stored at −20° C. Real-time PCR was performed by using AMPIGENE qPCR 1-Step Green Kit (Enzo Life Sciences Inc, USA). […]

[6] = system: psoriasis induced mice (imiquimod); assay: Recovery effect on keratosis of the psoriasis induced mice after termination of imiquimod (PASI)
Method: (§3) Imiquimod was applied to the psoriasis induced mice which had developed psoriasis for a week in Example <2-1>. The application was stopped 8 days after the application began. The groups CON and IMQ were treated with distilled water, the group C was treated with cedrol, the group CA was treated with cedryl acetate, the group CE was treated with alpha-cedrene alone at the concentration of 100 mg/kg in 200 μl, every day via oral-administration. Day 8 was the day the imiquimod application was stopped, since then the compounds were administered for 1 week once a day, during which photo-recording was performed (FIGS. 13A˜13D).
(§4) Then, the psoriasis area severity index (Psoriasis Area Severity Index, PASI) was calculated, based on which the recovery effect on keratosis was evaluated.

[7] = system: psoriasis induced mice (imiquimod); assay: Recovery effect on skin flair of the psoriasis induced mice after termination of imiquimod (PASI); conditions: for PASI reflecting skin flair: day 8 (imiquimod application stopped), 100 mg/kg oral; for skin flair disappearance (in words): on day 16, 100 mg/kg oral after termination of imiquimod
Method: as §3, §4

[8] = system: psoriasis induced mice (imiquimod); assay: Recovery effect on hemorrhage spots of the psoriasis induced mice
Method: as §3
The psoriasis induced mice orally administered with cedrol, cedryl acetate, and alpha-cedrene of Example <3-1> were observed by the naked eye, and the number of mice showing the recovery of hemorrhage spots was counted.

[9] = system: psoriasis induced mice (imiquimod); assay: Accelerating effect on hair regrowth of the psoriasis induced mice; conditions: for number of mice showing hair regrowth: 8 mice/group
Method: as §3
The psoriasis induced mice orally administered with cedrol, cedryl acetate, and alpha-cedrene of Example <3-1> were observed by the naked eye, and the number of mice showing hair regrowth was counted.

[10] = day 7, 100 mg/kg oral, IMQ alone 5
[11] = day 7, 100 mg/kg oral, IMQ alone 3
[12] = day 8 (imiquimod application stopped), 100 mg/kg oral
[13] = day 8, 100 mg/kg oral, 8 mice/group
[14] = day 16, 100 mg/kg oral after termination of imiquimod
[15] = day 13, 100 mg/kg oral after termination of imiquimod
[16] = day 16, 100 mg/kg oral after termination of imiquimod, distilled water 5
[17] = 100 mg/kg oral after termination of imiquimod

SMILES	skin flair mean point (PASI) [1] [point]	number of mice showing hemorrhage spots ([3]; day 5, 100 mg/kg oral)	number of mice showing hemorrhage spots [3, 10]	number of mice showing skin wrinkles [4, 11]	IL-17A expression value in the spleen (non-treated control group regarded as value 1) [5]	PASI reflecting keratosis [6, 12] [point]	PASI reflecting skin flair [7] [point]	skin flair disappearance (in words) [7]	number of mice showing hemorrhage spots [8, 13] [mice]	number of mice showing hemorrhage spots [8, 14]	number of mice showing hair regrowth [9, 15]	number of mice showing hair regrowth [9, 16]	number of mice showing skin wrinkles ([4]; day 5, 100 mg/kg oral)	also measured
CC1=CC[C@@]23C[C@@H]1C(C)(C)[C@@H]2CC[C@H]3C [alpha-cedrene, Alpha-cedrene]	3.33	two	one	one	31.0±3.1	4.0±0.6	4.0±1.0	skin flair of all mice disappeared	4	no mouse	one	all the mice	–	skin flair reduction effect, comparison in words ([1]; 100 mg/kg oral, 7 days): strongest reduction effect; skin pain reduction effect, comparison in words ([2]; 100 mg/kg oral, 7 days): strongest reduction effect; number of mice showing skin pain ([2]; during the 7 day observation period, 100 mg/kg oral): no mice; skin wrinkle reduction effect, comparison in words ([4]; 100 mg/kg oral, 7 days): strongest reduction effect; number of mice showing skin wrinkles ([4]; day 6, 100 mg/kg oral): one; IL-17A expression inhibition effect in the spleen, comparison in words [5]: strongest inhibition effect; PASI reflecting keratosis ([6]; day 15, 100 mg/kg oral once a day after termination of imiquimod): 0.3±0.6 point
C[C@@H]1CC[C@H]2C(C)(C)[C@H]3C[C@@]12CC[C@@]3(C)O [cedrol, Cedrol]	3.33	–	3 mice	2 mice	1.1±0.1	3.0±0.6	3.0±0.6	skin flair of all mice disappeared	6	–	2 mice	all the mice	one	number of mice showing skin pain ([2]; day 4, 100 mg/kg oral, 8 mice/group): one; number of mice showing skin pain ([2]; day 5, 100 mg/kg oral, 8 mice/group): no mice; number of mice showing hemorrhage spots ([3]; day 4, 100 mg/kg oral): one; keratosis recovery effect, comparison in words [6, 17]: strongest recovery effect; keratosis recovered to normal (in words) ([6]; on day 15, 100 mg/kg oral after termination of imiquimod): all 8 mice were recovered to normal; skin flair recovery effect, comparison in words [7, 17]: strongest recovery effect; hemorrhage spot recovery effect, comparison in words [8, 17]: strongest recovery effect; number of mice showing hemorrhage spots ([8]; day 12, 100 mg/kg oral after termination of imiquimod): no mouse; accelerating effect on hair regrowth, comparison in words [9, 17]: strongest accelerating effect
CC(=O)O[C@]1(C)CC[C@@]23C[C@@H]1C(C)(C)[C@@H]2CC[C@H]3C [cedryl acetate, Cedryl acetate]	3.16	one	one	one	7.4±0.7	4.0±0.6	4.0±0.0	–	6	no mouse	–	7 mice	one	number of mice showing skin pain ([2]; day 6, 100 mg/kg oral, 8 mice/group): one; number of mice showing skin pain ([2]; day 7, 100 mg/kg oral, 8 mice/group, IMQ alone 5): no mice; skin hemorrhage spot reduction effect, comparison in words ([3]; 100 mg/kg oral, 7 days): strongest reduction effect; PASI reflecting keratosis ([6]; day 14, 100 mg/kg oral once a day after termination of imiquimod): 1.0±0.0 point; number of mice showing hair regrowth ([9]; day 14, 100 mg/kg oral after termination of imiquimod): one
